Consider twelve compounds from patent US11596692B1 (Incyte Corporation, priority 2018, dated 2023).

For orientation: IC50 means the concentration at which inhibition is half-maximal. As usually defined, the EC50 is the concentration giving half of the maximal effect.

One experiment deals with PD-L1 (Homo sapiens (Human), UniProt Q9NZQ7). Description: PD-L1 surface levels on HEK293T STING reporter cells, high PD-L1. In kind it is cell-based. As for the experimental part: To determine PD-L1 expression on HEK cells after treatment of PD-L1-small molecule conjugated STING agonists, cells were harvested at 20 hours post-treatment. Single cell suspensions were then stained with phycoerythrin-conjugated anti-PD-L1 antibody (BD Bioscience), and the PD-L1 expression were then analyzed by flow cytometry. Mean fluorescence intensity was used as the relative level of surface PD-L1 expression on cells (FIG. 1 and Table 6).
Also, cells were stained with PE-conjugated anti-human PD-L1 antibody to determine surface PD-L1 expression. Cell acquisition was performed on BD LSRFortessa X-20 (BD Biosciences). Data was analyzed using FlowJo software. IC50 values were calculated using Prism Software.

Experiment [1] relates to IRF3 activation in PD-L1 high HEK293T STING reporter cell line. Description: IRF3 activation in HEK293T STING reporter cells, high PD-L1. The following applies: high PD-L1 cells, 20 hours; read-out: IRF Activation EC50 (nM), High PD-L1. In kind it is cell-based, human. As for the experimental part:
(§1) HEK293T STING reporter cell line was purchased from Invivogen and expressed low level of PD-L1. This cell line was then engineered at Incyte Research Institute to overexpress human PD-L1. Both PD-L1 high and PD-L1 low HEK293T cell lines were plated at 100,000 cells/100 μL/well in 10% fetal calf serum-containing DMEM culture medium in a 96-well flat bottom plate. Serial dilutions of PD-L1 small molecule-conjugated STING agonists were then added to the corresponding wells, and incubated for 20 hours at 37° C. In a competition study setting, 1 μM of a PD-L1 small molecule was added in the corresponding wells to compete with the binding of PD-L1 small molecule-conjugated STING agonists. At the end of the incubation, the culture supernatants were carefully removed from each well, and the amount of IRF3 activation was determined by adding Quanti-Blue substrate in accordance with the manufacturer's protocol.
(§2) 293T-Dual hSTING-R232 (ISG/KI-IFNb) cells that were generated from 293T-Dual Null (ISG/KI-IFNb) cells by stable transfection of the R232 isoform of human STING were purchased from Invivogen (Invivogen #293d-r232).
(§3) This cell line expresses an ISRE-inducible SEAP (secreted embryonic alkaline phosphatase) reporter construct, which monitors the activation of interferon regulatory factor (IRF) and its binding to ISRE (IFN-stimulated response elements). These reporter cells express low level of PD-L1. Human PD-L1 was then overexpressed in these cells through stable transfection.
(§4) These 293T-Dual hSTING-R232 reporter cells as well as293T-Dual hSTING-R232 reporter cells overexpressing huPD-L1 were treated with various concentrations of STING compounds for 20 hours. After 20 hours, interferon regulatory factor (IRF) activity was assessed by measuring SEAP levels in the supernatant using QUNTI-Blue. EC50 values were generated by curve fit in Prism software.

Experiment [2] concerns IRF3 activation in PD-L1 low HEK293T STING reporter cell line. Description: IRF3 activation in HEK293T STING reporter cells, low PD-L1. In kind it is cell-based, human. Conditions: 20 hours, read-out: IRF Activation EC50 (nM), Low PD-L1. The protocol: as §1, §2, §3, §4

Like-named read-outs stand apart in the source and are kept apart here. Some results are limits rather than exact numbers.

PD-L1, sequence (Q9NZQ7 19-290): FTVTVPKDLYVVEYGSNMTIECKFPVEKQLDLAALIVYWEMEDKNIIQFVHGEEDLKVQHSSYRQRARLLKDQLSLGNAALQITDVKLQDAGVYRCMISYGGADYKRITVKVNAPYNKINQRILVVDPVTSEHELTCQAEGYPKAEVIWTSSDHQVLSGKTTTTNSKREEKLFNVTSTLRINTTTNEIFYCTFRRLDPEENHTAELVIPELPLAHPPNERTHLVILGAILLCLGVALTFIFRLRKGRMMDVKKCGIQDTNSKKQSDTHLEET

Turning to `CCn1nc(C)cc1C(=O)Nc1nc2cc(C(N)=O)cc(OC)c2n1C/C=C/Cn1c(NC(=O)c2cc(C)nn2CC)nc2cc(C(N)=O)cc(OCCCNC(=O)[C@H](CC(=O)O)NC(=O)[C@H](CC(=O)O)NC(=O)[C@H](CC(=O)O)NC(=O)[C@H](CC(=O)O)NC(=O)[C@H](CC(=O)O)NC(=O)CCCN3CCc4c(nc(C(=O)Nc5cccc(-c6cccc(NC(=O)c7nc8c(n7C)CCN(CCCC(=O)O)C8)c6Cl)c5Cl)n4C)C3)c21` [Example 13], at PD-L1, the IC50 is under 50 nM. Also, the figures for the concentration giving a half-maximal response (EC50) in experiment [1] and in experiment [2] were under 50 nM and 50 to 200 nM, respectively.

`CCn1nc(C)cc1C(=O)Nc1nc2cc(C(N)=O)cc(OC)c2n1C/C=C/Cn1c(NC(=O)c2cc(C)nn2CC)nc2cc(C(N)=O)cc(OCCCNC(=O)[C@H](CC(=O)O)NC(=O)[C@H](CC(=O)O)NC(=O)[C@H](CC(=O)O)NC(=O)[C@H](CC(=O)O)NC(=O)[C@H](CC(=O)O)NC(=O)[C@H](CC(=O)O)NC(=O)[C@H](CC(=O)O)NC(=O)CCCN3CCc4c(nc(C(=O)Nc5cccc(-c6cccc(NC(=O)c7nc8c(n7C)CCN(CCCC(=O)O)C8)c6Cl)c5Cl)n4C)C3)c21` [Example 14]: the concentration for half-maximal inhibition (IC50) against PD-L1 was under 50 nM. For the same compound, the concentration for a half-maximal effect (EC50) is under 50 nM in experiment [1] and 50 to 200 nM in experiment [2].

With `CCn1nc(C)cc1C(=O)Nc1nc2cc(C(N)=O)cc(OC)c2n1C/C=C/Cn1c(NC(=O)c2cc(C)nn2CC)nc2cc(C(N)=O)cc(OCCCNC(=O)[C@H](CC(=O)O)NC(=O)[C@H](CC(=O)O)NC(=O)[C@H](CCCNC(=N)N)NC(=O)[C@H](CC(=O)O)NC(=O)[C@H](CC(=O)O)NC(=O)[C@H](CC(=O)O)NC(=O)[C@H](CCCNC(=N)N)NC(=O)[C@H](CC(=O)O)NC(=O)CCCN3CCc4c(nc(C(=O)Nc5cccc(-c6cccc(NC(=O)c7nc8c(n7C)CCN(CCCC(=O)O)C8)c6Cl)c5Cl)n4C)C3)c21` [Example 15], the IC50 on PD-L1 was under 50 nM. The half-maximal effective concentration (EC50) in experiment [1] is under 50 nM; in experiment [2], 50 to 200 nM.

`CCn1nc(C)cc1C(=O)Nc1nc2cc(C(N)=O)cc(OC)c2n1C/C=C/Cn1c(NC(=O)c2cc(C)nn2CC)nc2cc(C(N)=O)cc(OCCCNC(=O)[C@H](CC(=O)O)NC(=O)[C@H](CCCNC(=N)N)NC(=O)[C@H](CC(=O)O)NC(=O)[C@H](CC(=O)O)NC(=O)CCCN3CCc4c(nc(C(=O)Nc5cccc(-c6cccc(NC(=O)c7nc8c(n7C)CCN(CCCC(=O)O)C8)c6Cl)c5Cl)n4C)C3)c21` [Example 16] returned a half-inhibitory concentration (IC50) against PD-L1 of under 50 nM. The EC50 in experiment [1] and in experiment [2] was under 50 nM each time.

On PD-L1, `CCn1nc(C)cc1C(=O)Nc1nc2cc(C(N)=O)cc(OC)c2n1C/C=C/Cn1c(NC(=O)c2cc(C)nn2CC)nc2cc(C(N)=O)cc(OCCCNC(=O)[C@H](CC(=O)O)NC(=O)[C@H](CC(=O)O)NC(=O)[C@H](CCCNC(=N)N)NC(=O)[C@H](CC(=O)O)NC(=O)CCNC(=O)C3CCN(Cc4cc(C#N)c5oc(-c6cccc(-c7cccc(Nc8nc(C(F)F)nc9cc(CN%10CC[C@@H](O)C%10)cnc89)c7C)c6C)nc5c4)CC3)c21` [Example 8] showed an IC50 of 200 to 1000 nM. Also, the EC50 in experiment [1] was under 50 nM; in experiment [2], 50 to 200 nM.

`CCn1nc(C)cc1C(=O)Nc1nc2cc(C(N)=O)cc(OCCCNC(=O)[C@H](CC(=O)O)NC(=O)[C@H](CC(=O)O)NC(=O)[C@H](CCCNC(=N)N)NC(=O)[C@H](CC(=O)O)NC(=O)[C@H](CC(=O)O)NC(=O)[C@H](CC(=O)O)NC(=O)[C@H](CCCNC(=N)N)NC(=O)[C@H](CC(=O)O)NC(=O)CCCN3CCc4c(nc(C(=O)Nc5cccc(-c6cccc(NC(=O)c7nc8c(n7C)CCN(CCCC(=O)O)C8)c6Cl)c5Cl)n4C)C3)c2n1C/C=C/Cn1c2nc(-c3cc(C)nn3CC)ncc2c2cc(C(N)=O)cc(OC)c21` [Example 22] showed a concentration for half-maximal inhibition (IC50) at PD-L1 of under 50 nM. The EC50 in experiment [1] and in experiment [2] was under 50 nM each time.

At PD-L1, `CCn1nc(C)cc1C(=O)Nc1nc2cc(C(N)=O)cc(OCCCNC(=O)OCCNC(=O)[C@H](CC(=O)O)NC(=O)[C@H](CC(=O)O)NC(=O)[C@H](CCCNC(=N)N)NC(=O)[C@H](CC(=O)O)NC(=O)CCCN3CCc4c(nc(C(=O)Nc5cccc(-c6cccc(NC(=O)c7nc8c(n7C)CCN(CCCC(=O)O)C8)c6Cl)c5Cl)n4C)C3)c2n1C/C=C/Cn1c2nc(-c3cc(C)nn3CC)ncc2c2cc(C(N)=O)cc(OC)c21` [Example 24] came in with a half-inhibitory concentration (IC50) of under 50 nM. Also, the half-maximal effective concentration (EC50) in experiment [1] and in experiment [2] was under 50 nM throughout.

On PD-L1, `CCn1nc(C)cc1C(=O)Nc1nc2cc(C(N)=O)cc(OCCCNC(=O)CCNC(=O)OCc3ccc(NC(=O)[C@H](CCCNC(N)=O)NC(=O)[C@@H](NC(=O)Cn4cc(CCNC(=O)[C@H](CC(=O)O)NC(=O)[C@H](CC(=O)O)NC(=O)[C@H](CCCNC(=N)N)NC(=O)[C@H](CC(=O)O)NC(=O)CCCN5CCc6c(nc(C(=O)Nc7cccc(-c8cccc(NC(=O)c9nc%10c(n9C)CCN(CCCC(=O)O)C%10)c8Cl)c7Cl)n6C)C5)nn4)C(C)C)cc3)c2n1C/C=C/Cn1c2nc(-c3cc(C)nn3CC)ncc2c2cc(C(N)=O)cc(OC)c21` [Example 9] showed an IC50 of 50 to 200 nM. The EC50 in experiment [1] was under 50 nM; in experiment [2], 200 to 1000 nM.

As to `CCn1nc(C)cc1C(=O)Nc1nc2cc(C(N)=O)cc(OC)c2n1C/C=C/Cn1c(NC(=O)c2cc(C)nn2CC)nc2cc(C(N)=O)cc(OCCCNC(=O)[C@H](CC(=O)O)NC(=O)[C@H](CC(=O)O)NC(=O)[C@H](CCCCN)NC(=O)[C@H](CC(=O)O)NC(=O)CCCN3CCc4c(nc(C(=O)Nc5cccc(-c6cccc(NC(=O)c7nc8c(n7C)CCN(CCCC(=O)O)C8)c6Cl)c5Cl)n4C)C3)c21` [Example 18], the 50% inhibitory concentration (IC50) against PD-L1 was under 50 nM. Further, the concentration for a half-maximal effect (EC50) in experiment [1] and in experiment [2] was under 50 nM each time.

As to `CCn1nc(C)cc1C(=O)Nc1nc2cc(C(N)=O)cc(OCCCNC(=O)[C@H](CC(=O)O)NC(=O)[C@H](CC(=O)O)NC(=O)[C@H](CCCNC(=N)N)NC(=O)[C@H](CC(=O)O)NC(=O)CCCN3CCc4c(nc(C(=O)Nc5cccc(-c6cccc(NC(=O)c7nc8c(n7C)CCN(CCCC(=O)O)C8)c6Cl)c5Cl)n4C)C3)c2n1C/C=C/Cn1c2nc(-c3cc(C)nn3CC)ncc2c2cc(C(N)=O)cc(OCCCOC)c21` [Example 23], the IC50 on PD-L1 was under 50 nM. Besides, the EC50 in experiment [1] is under 50 nM; in experiment [2], 50 to 200 nM.

On to `CCn1nc(C)cc1C(=O)Nc1nc2cc(C(N)=O)cc(OCCCNC(=O)[C@H](CC(=O)O)NC(=O)[C@H](CC(=O)O)NC(=O)[C@H](CCCNC(N)=O)NC(=O)[C@H](CC(=O)O)NC(=O)CCCN3CCc4c(nc(C(=O)Nc5cccc(-c6cccc(NC(=O)c7nc8c(n7C)CCN(CCCC(=O)O)C8)c6Cl)c5Cl)n4C)C3)c2n1C/C=C/Cn1c2nc(-c3cc(C)nn3CC)ncc2c2cc(C(N)=O)cc(OC)c21` [Example 21], for which the half-inhibitory concentration (IC50) against PD-L1 was under 50 nM. The values for the EC50 in experiment [1] and in experiment [2] were under 50 nM and 50 to 200 nM, respectively.

Turning to `CCn1nc(C)cc1C(=O)Nc1nc2cc(C(N)=O)cc(OC)c2n1C/C=C/Cn1c(NC(=O)c2cc(C)nn2CC)nc2cc(C(N)=O)cc(OCCCNC(=O)[C@H](CC(=O)O)NC(=O)[C@H](CC(=O)O)NC(=O)CCCN3CCc4c(nc(C(=O)Nc5cccc(-c6cccc(NC(=O)c7nc8c(n7C)CCN(CCCC(=O)O)C8)c6Cl)c5Cl)n4C)C3)c21` [Example 10], the half-inhibitory concentration (IC50) on PD-L1 (high PD-L1 cells, 20 hours, read-out: PD-L1 Internalization IC50 (nM), High PD-L1) is under 50 nM. In addition, the figures for the EC50 in experiment [1] and in experiment [2] were under 50 nM and 50 to 200 nM, respectively.
